Measurements taken from patent US20130029928A1 (priority 2010, published 2013).
Read-outs that look alike come from different tables or passages of the source.

Experiment: Phase I study CXR1002-001: plasma pharmacokinetics (LC-MS/MS)
Type: in vivo, human
Details: for concentration at 696 h: 696 hr (Day 29)
Source text: PK samples, PD (fasting) samples, blood glucose, and blood triglyceride samples, were taken over a 6-week period.
Dose limiting toxicity (DLT) will be based on the toxicity assessments over the first 3-week period of the repeat dosing schedule. PK samples (single blood sample) were taken on the following basis: • Every 6 weeks during the repeat dosing phase • If dosing is interrupted or stopped, samples will be taken at intervals according to patient convenience • PK sampling for safety evaluation may take place at any time, as clinically indicated
Plasma samples were collected after the single 50 mg dose at the following timepoints: Pre-dose, and then 0.25, 0.5, 0.75, 1, 1.5, 2, 3, 4, 6, 24, 48, and 72 hours after administration and then once weekly at weeks 2, 3, 4, 5, and 6 (days 8, 15, 22, 29, and 36). For patients treated with the weekly repeat dose, plasma samples were collected at the following timepoints: Pre-dose and then 2, 3, 4 and 24 hours after administration for a total of 6 weeks. Thereafter a single sample was collected every 6 weeks for monitoring of exposure during long term treatment. Plasma samples were processed at site and stored at −80° C. prior to batch shipment to the analytical laboratory.

[1] = human, plasma, oral, 50 mg, Patient 001 Dose 50 mg
[2] = human, plasma, oral, 50 mg, Patient 001 Dose 50 mg, read-out: Concentration
[3] = human, plasma, oral, 50 mg, Patient 002 Dose 50 mg
[4] = human, plasma, oral, 50 mg, Patient 002 Dose 50 mg, read-out: Concentration
[5] = human, plasma, oral, 50 mg, Patient 003 Dose 50 mg

In the case of O=C(O)C(F)(F)C(F)(F)C(F)(F)C(F)(F)C(F)(F)C(F)(F)C(F)(F)F [CXR1002], the “maximal plasma level recorded” value (1200 mg weekly dose over a 5 week period, one patient) is reported as 1530 µM, the Concentration (Patient 032, 950 mg, person, plasma, 0 hr (pre-dose)) is reported as “BLQ” and the oral bioavailability (clinical trials) is reported as “orally bioavailable”. The concentration at 168 h (female, human, plasma, oral, Female, plasma, 168 hr (Day 8), read-out: Concentration) was 146 µM, the concentration at 170 h (female, human, plasma, oral, Female, plasma, 170 hr, read-out: Concentration) was 276 µM and the concentration at 171 h (female, human, plasma, oral, Female, plasma, 171 hr, read-out: Concentration) was 253 µM. For the same compound, the concentration at 172 h (female, human, plasma, oral, Female, plasma, 172 hr, read-out: Concentration) was 248 µM, the concentration at 192 h (female, human, plasma, oral, Female, plasma, 192 hr (Day 9), read-out: Concentration) was 246 µM and the concentration at 504 h (female, human, plasma, oral, Female, plasma, 504 hr (Day 22), read-out: Concentration) was 333 µM. For the same compound, the concentration at 506 h (female, human, plasma, oral, Female, plasma, 506 hr, read-out: Concentration) was 427 µM, the concentration at 507 h (female, human, plasma, oral, Female, plasma, 507 hr, read-out: Concentration) was 412 µM and the concentration at 528 h (female, human, plasma, oral, Female, plasma, 528 hr (Day 23), read-out: Concentration) was 405 µM. For the same compound, the concentration at 840 h (female, human, plasma, oral, Female, plasma, 840 hr (Day 36), read-out: Concentration) was 434 µM, the concentration at 842 h (female, human, plasma, oral, Female, plasma, 842 hr, read-out: Concentration) was 461 µM and the concentration at 843 h (female, human, plasma, oral, Female, plasma, 843 hr, read-out: Concentration) was 457 µM. It also gave a concentration at 844 h (female, human, plasma, oral, Female, plasma, 844 hr, read-out: Concentration) of 482 µM, a concentration at 864 h (female, human, plasma, oral, Female, plasma, 864 hr (Day 37), read-out: Concentration) of 526 µM and a concentration at 0 h [1] of 0 µM. The concentration at 0.25 h [1] was 0.35 µM, the concentration at 0.5 hr (human, plasma, oral, 50 mg, Patient 001 Dose 50 mg, 0.5 hr) was 1.11 µM and the concentration at 0.75 hr (human, plasma, oral, 50 mg, Patient 001 Dose 50 mg, 0.75 hr) was 9.17 µM. For the same compound, the concentration at 1 hr (human, plasma, oral, 50 mg, Patient 001 Dose 50 mg, 1 hr) was 14.4 µM, the concentration at 1.5 h [1] was 25.7 µM and the concentration at 2 h (human, plasma, oral, 50 mg, Patient 001 Dose 50 mg, 2 hr, read-out: Concentration) was 22.5 µM. The concentration at 3 h [2] was 20.8 µM, the concentration at 6 h [1] was 14.7 µM and the concentration at 24 h [2] was 13.8 µM. The concentration at 48 h [1] was 12.8 µM, the concentration at 72 hr (human, plasma, oral, 50 mg, Patient 001 Dose 50 mg, 72 hr) was 9.7 µM and the concentration at 192 hr (human, plasma, oral, 50 mg, Patient 001 Dose 50 mg, 192 hr (Day 8), read-out: Concentration) was 8.54 µM. It also gave a concentration at 360 hr (human, plasma, oral, 50 mg, Patient 001 Dose 50 mg, 360 hr (Day 15), read-out: Concentration) of 8.63 µM, a concentration at 528 h (human, plasma, oral, 50 mg, Patient 001 Dose 50 mg, 528 hr (Day 22), read-out: Concentration) of 11.6 µM and a concentration at 696 h [2] of 10.2 µM. For the same compound, the concentration at 864 h (human, plasma, oral, 50 mg, Patient 001 Dose 50 mg, 864 hr (Day 36), read-out: Concentration) was 8.89 µM, the concentration at 144 day (human, plasma, oral, 50 mg, Patient 001 Dose 50 mg, Day 144) was 226 µM and the concentration at 179 day (human, plasma, oral, 50 mg, Patient 001 Dose 50 mg, Day 179) was 250 µM. It also gave a concentration at 227 day (human, plasma, oral, 50 mg, Patient 001 Dose 50 mg, Day 227) of 308 µM, a concentration at 268 day (human, plasma, oral, 50 mg, Patient 001 Dose 50 mg, Day 268) of 268 µM and a concentration at 0 h [3] of 0 µM. The concentration at 0.25 h [3] was 3.06 µM, the concentration at 0.5 h (human, plasma, oral, 50 mg, Patient 002 Dose 50 mg, 0.5 hr) was 7.62 µM and the concentration at 0.75 h (human, plasma, oral, 50 mg, Patient 002 Dose 50 mg, 0.75 hr) was 8.39 µM. The concentration at 1 h (human, plasma, oral, 50 mg, Patient 002 Dose 50 mg, 1 hr) was 8.55 µM, the concentration at 1.5 h [3] was 29.8 µM and the concentration at 3 h [4] was 22.8 µM. The concentration at 4 h (human, plasma, oral, 50 mg, Patient 002 Dose 50 mg, 4 hr, read-out: Concentration) was 14.5 µM, the concentration at 6 h [3] was 17.5 µM and the concentration at 24 h [4] was 14.3 µM. It also gave a concentration at 48 h [3] of 13.3 µM, a concentration at 72 h (human, plasma, oral, 50 mg, Patient 002 Dose 50 mg, 72 hr) of 15.6 µM and a concentration at 192 h (human, plasma, oral, 50 mg, Patient 002 Dose 50 mg, 192 hr (Day 8), read-out: Concentration) of 17.2 µM. The concentration at 360 h (human, plasma, oral, 50 mg, Patient 002 Dose 50 mg, 360 hr (Day 15), read-out: Concentration) was 18.6 µM, the concentration at 528 h (human, plasma, oral, 50 mg, Patient 002 Dose 50 mg, 528 hr (Day 22), read-out: Concentration) was 21.5 µM and the concentration at 696 h [4] was 21 µM. For the same compound, the concentration at 864 h (human, plasma, oral, 50 mg, Patient 002 Dose 50 mg, 864 hr (Day 36), read-out: Concentration) was 20.1 µM, the concentration at 0 h [5] was 0.14 µM and the concentration at 0.25 h [5] was 1.08 µM.
